In ChEMBL document CHEMBL5465560, “Selectivity Literature for EUbOPEN Chemogenomic Library” (2024):

What was measured:
Activated CDC42 kinase 1 = Activated CDC42 kinase 1 (Homo sapiens, UniProt Q07912); test: Selectivity interaction (KinomeScan (DiscoverX)) EUB0000655a TNK2; conditions: at 10 µM
[1] = biological target: G protein-coupled receptor kinase 4 (Homo sapiens) (UniProt P32298); test: Selectivity interaction (KinomeScan (DiscoverX)) EUB0001079a GRK4; conditions: at 1 µM
[2] = biological target: Eukaryotic translation initiation factor 2-alpha kinase 1 (Homo sapiens) (UniProt Q9BQI3); test: Selectivity interaction (KinomeScan (DiscoverX)) EUB0000618a EIF2AK1; conditions: at 10 µM
Eukaryotic translation initiation factor 2-alpha kinase 1 (Homo sapiens), sequence (Q9BQI3 whole entry): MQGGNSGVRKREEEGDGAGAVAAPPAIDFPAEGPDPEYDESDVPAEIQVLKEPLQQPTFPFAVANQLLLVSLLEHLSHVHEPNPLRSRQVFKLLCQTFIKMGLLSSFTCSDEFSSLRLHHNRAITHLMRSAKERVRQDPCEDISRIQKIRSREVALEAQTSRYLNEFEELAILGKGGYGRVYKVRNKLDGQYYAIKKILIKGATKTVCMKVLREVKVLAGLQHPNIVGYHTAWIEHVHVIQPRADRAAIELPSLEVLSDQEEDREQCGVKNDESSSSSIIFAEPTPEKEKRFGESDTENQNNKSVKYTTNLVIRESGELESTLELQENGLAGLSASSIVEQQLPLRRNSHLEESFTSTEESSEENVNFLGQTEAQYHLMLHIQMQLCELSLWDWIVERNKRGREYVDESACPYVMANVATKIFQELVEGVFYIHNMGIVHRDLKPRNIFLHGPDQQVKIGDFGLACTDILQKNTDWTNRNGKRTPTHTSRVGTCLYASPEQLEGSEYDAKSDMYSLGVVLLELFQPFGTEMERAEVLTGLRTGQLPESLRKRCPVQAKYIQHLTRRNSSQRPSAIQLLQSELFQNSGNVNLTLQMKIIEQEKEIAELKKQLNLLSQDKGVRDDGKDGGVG

[3] = biological target: ALK tyrosine kinase receptor (Homo sapiens, UniProt Q9UM73); test: Selectivity interaction (SelectScreen profiling (Invitrogen)) EUB0000607a ALK; conditions: at 2 µM
ALK tyrosine kinase receptor, sequence (Q9UM73 19-1620 limits assumed): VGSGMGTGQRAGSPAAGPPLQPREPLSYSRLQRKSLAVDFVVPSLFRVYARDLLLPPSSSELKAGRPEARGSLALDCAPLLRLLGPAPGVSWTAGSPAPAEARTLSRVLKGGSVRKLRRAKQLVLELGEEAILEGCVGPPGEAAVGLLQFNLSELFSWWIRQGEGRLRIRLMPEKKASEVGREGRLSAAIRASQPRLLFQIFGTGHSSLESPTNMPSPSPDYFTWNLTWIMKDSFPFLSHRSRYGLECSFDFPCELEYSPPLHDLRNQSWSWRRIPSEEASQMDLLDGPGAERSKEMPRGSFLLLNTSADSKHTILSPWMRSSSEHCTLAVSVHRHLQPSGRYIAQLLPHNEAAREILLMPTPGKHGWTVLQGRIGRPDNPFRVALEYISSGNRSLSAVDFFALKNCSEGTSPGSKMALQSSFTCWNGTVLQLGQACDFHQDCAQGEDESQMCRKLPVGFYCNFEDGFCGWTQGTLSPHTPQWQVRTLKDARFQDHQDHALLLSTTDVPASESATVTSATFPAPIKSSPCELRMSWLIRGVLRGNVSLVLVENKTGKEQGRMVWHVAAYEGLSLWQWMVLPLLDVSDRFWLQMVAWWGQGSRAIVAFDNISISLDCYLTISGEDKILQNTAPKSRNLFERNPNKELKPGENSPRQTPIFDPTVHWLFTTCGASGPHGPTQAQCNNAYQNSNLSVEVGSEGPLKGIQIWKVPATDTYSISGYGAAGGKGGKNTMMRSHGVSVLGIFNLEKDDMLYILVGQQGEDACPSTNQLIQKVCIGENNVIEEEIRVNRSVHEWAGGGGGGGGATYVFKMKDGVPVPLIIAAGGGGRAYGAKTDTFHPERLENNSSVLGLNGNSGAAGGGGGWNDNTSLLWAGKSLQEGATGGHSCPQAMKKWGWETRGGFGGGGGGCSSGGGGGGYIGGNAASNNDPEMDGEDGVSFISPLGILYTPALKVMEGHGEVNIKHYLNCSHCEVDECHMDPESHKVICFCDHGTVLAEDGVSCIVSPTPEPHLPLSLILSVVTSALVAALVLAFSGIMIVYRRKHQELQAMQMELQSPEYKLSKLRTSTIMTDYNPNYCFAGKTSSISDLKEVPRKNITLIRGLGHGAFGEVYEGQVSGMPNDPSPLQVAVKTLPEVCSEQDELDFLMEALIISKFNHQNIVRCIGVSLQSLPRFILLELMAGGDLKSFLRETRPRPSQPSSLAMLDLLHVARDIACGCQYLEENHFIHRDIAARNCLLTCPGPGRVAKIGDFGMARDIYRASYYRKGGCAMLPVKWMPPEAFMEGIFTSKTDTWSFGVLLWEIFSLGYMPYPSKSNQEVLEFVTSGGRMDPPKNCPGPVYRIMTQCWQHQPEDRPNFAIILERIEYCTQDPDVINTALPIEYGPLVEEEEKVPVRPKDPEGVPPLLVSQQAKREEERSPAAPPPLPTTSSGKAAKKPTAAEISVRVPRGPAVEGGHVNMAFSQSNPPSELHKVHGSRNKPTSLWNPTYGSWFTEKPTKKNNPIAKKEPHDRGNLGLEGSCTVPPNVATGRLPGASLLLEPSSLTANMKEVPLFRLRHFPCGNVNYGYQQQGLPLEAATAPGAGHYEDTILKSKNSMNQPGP

[4] = biological target: Ribosomal protein S6 kinase alpha-5 (Homo sapiens) (UniProt O75582); test: Selectivity interaction (KinomeScan (DiscoverX)) EUB0000607a RPS6KA5; conditions: at 10 µM
[5] = biological target: Cyclin-dependent kinase 13 (Homo sapiens, UniProt Q14004); test: Selectivity interaction (ActivX KiNativ screen (ex vivo kinase selectivity in human PBMCs)) EUB0001619a CDK13; type: cell-based; conditions: PBMC, at 1 µM
[6] = biological target: T1, Mitogen-activated protein kinase kinase kinase 5 (Homo sapiens) (UniProt Q99683); test: Selectivity interaction (ActivX KiNativ screen (ex vivo kinase selectivity in human PBMCs)) EUB0001619a MAP3K5; type: cell-based; conditions: PBMC, at 1 µM
T1 sequence (whole entry): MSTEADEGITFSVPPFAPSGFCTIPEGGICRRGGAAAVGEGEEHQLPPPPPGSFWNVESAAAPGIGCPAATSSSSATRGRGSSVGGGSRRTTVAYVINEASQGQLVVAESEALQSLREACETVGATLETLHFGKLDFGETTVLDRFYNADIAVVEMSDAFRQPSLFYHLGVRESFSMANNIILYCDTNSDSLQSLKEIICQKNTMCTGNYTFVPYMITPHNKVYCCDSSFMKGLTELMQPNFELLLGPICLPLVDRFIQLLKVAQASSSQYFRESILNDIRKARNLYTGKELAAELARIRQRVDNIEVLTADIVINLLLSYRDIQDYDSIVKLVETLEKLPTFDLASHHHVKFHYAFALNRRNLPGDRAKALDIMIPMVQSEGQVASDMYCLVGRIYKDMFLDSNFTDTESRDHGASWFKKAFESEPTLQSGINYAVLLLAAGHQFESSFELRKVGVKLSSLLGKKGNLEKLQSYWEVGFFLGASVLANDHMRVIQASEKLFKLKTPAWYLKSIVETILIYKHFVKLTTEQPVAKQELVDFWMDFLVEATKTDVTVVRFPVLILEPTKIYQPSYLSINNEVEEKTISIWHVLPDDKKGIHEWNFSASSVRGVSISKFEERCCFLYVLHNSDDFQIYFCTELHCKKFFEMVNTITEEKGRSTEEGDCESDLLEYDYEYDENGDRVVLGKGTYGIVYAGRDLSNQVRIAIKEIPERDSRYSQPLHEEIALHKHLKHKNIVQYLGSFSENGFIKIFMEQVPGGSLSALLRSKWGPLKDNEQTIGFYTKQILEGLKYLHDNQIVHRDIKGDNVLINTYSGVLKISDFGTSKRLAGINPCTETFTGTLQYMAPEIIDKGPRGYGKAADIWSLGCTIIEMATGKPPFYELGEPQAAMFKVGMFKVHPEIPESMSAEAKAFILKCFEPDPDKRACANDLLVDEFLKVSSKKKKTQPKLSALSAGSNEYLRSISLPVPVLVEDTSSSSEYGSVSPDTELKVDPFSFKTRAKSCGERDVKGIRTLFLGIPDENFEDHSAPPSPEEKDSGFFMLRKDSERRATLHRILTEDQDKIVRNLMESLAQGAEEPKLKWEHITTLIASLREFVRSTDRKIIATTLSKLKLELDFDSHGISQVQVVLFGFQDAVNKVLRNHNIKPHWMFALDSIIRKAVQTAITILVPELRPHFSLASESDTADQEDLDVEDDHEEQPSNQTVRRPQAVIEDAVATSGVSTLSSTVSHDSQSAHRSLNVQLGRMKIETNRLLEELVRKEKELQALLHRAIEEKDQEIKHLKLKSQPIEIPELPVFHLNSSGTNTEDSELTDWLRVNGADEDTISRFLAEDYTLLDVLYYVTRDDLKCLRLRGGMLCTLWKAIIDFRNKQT

[7] = biological target: T2, cAMP-dependent protein kinase catalytic subunit PRKX (Homo sapiens) (UniProt P51817); test: Selectivity interaction (KinomeScan (DiscoverX)) EUB0000229b PRKX; conditions: at 10 µM
T2 sequence (whole entry): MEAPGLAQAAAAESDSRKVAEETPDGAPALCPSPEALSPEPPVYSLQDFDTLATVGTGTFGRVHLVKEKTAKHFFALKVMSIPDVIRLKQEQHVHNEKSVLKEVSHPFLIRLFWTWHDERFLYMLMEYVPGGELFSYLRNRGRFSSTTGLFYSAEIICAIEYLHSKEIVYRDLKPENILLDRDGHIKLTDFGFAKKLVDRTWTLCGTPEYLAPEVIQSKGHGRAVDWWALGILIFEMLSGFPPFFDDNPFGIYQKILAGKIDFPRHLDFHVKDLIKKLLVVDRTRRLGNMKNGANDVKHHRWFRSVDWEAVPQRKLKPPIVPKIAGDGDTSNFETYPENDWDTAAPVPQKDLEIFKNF

[8] = biological target: T3, TGF-beta receptor type-1 (Homo sapiens) (UniProt P36897); test: Selectivity interaction (ProQinase) EUB0000171b TGFBR1
T3 sequence (whole entry): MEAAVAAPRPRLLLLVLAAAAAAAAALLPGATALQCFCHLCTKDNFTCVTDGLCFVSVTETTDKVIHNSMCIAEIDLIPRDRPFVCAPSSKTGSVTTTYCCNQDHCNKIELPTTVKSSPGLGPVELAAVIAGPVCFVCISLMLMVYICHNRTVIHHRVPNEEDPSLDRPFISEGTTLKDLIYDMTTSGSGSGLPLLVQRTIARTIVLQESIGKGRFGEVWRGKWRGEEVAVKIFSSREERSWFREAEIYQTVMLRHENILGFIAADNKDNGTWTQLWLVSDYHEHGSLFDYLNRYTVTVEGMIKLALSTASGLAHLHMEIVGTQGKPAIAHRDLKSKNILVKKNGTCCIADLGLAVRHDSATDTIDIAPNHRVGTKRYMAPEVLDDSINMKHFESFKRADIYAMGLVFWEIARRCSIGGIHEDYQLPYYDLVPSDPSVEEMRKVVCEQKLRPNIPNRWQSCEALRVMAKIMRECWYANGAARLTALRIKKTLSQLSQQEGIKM

[9] = biological target: Serine/threonine-protein kinase 38 (Homo sapiens) (UniProt Q15208); test: Selectivity interaction (LanthaScreen Eu Kinase Binding Assay) EUB0001632a STK38; conditions: at 10 µM
Serine/threonine-protein kinase 38 (Homo sapiens), sequence (Q15208 2-465 limits assumed): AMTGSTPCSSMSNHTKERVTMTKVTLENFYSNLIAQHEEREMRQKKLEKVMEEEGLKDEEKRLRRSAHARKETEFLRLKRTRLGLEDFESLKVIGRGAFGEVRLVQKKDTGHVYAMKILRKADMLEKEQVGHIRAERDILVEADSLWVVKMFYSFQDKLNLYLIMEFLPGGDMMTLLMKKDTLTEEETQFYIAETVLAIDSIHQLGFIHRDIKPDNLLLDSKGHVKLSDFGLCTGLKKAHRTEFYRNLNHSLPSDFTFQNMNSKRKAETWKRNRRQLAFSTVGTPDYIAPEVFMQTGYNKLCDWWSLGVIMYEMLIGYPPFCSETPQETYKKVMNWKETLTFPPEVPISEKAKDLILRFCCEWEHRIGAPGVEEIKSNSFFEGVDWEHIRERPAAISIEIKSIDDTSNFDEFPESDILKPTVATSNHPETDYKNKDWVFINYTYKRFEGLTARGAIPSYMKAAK

[10] = Selectivity interaction (KinomeScan (DiscoverX)) EUB0000695a CDPK1; conditions: at 100 nM
[11] = biological target: Ribosomal protein S6 kinase alpha-2 (Homo sapiens) (UniProt Q15349); test: Selectivity interaction (KinomeScan (DiscoverX)) EUB0000695a RPS6KA2; conditions: at 100 nM
Ribosomal protein S6 kinase alpha-2 (Homo sapiens), sequence (Q15349 whole entry): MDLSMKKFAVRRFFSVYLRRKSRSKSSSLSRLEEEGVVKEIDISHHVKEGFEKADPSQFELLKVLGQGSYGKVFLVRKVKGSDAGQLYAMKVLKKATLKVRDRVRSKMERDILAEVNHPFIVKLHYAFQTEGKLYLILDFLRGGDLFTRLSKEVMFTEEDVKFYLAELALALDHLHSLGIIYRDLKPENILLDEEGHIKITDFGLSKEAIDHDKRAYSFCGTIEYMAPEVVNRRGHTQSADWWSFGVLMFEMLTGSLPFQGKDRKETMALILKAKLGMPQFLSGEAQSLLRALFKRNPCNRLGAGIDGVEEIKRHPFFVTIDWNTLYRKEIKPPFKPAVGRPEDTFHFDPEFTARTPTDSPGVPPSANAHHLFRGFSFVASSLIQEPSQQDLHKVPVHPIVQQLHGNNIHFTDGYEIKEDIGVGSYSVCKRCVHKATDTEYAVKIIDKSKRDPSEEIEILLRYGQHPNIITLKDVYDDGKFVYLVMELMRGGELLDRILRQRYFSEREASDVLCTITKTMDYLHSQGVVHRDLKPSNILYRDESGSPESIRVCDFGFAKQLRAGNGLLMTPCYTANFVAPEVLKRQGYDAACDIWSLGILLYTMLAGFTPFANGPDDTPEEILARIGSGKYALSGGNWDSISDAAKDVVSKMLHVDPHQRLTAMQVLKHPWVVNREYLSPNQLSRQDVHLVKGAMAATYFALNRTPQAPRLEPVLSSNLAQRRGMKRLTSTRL

Activated CDC42 kinase 1, sequence (Q07912 whole entry, looked up): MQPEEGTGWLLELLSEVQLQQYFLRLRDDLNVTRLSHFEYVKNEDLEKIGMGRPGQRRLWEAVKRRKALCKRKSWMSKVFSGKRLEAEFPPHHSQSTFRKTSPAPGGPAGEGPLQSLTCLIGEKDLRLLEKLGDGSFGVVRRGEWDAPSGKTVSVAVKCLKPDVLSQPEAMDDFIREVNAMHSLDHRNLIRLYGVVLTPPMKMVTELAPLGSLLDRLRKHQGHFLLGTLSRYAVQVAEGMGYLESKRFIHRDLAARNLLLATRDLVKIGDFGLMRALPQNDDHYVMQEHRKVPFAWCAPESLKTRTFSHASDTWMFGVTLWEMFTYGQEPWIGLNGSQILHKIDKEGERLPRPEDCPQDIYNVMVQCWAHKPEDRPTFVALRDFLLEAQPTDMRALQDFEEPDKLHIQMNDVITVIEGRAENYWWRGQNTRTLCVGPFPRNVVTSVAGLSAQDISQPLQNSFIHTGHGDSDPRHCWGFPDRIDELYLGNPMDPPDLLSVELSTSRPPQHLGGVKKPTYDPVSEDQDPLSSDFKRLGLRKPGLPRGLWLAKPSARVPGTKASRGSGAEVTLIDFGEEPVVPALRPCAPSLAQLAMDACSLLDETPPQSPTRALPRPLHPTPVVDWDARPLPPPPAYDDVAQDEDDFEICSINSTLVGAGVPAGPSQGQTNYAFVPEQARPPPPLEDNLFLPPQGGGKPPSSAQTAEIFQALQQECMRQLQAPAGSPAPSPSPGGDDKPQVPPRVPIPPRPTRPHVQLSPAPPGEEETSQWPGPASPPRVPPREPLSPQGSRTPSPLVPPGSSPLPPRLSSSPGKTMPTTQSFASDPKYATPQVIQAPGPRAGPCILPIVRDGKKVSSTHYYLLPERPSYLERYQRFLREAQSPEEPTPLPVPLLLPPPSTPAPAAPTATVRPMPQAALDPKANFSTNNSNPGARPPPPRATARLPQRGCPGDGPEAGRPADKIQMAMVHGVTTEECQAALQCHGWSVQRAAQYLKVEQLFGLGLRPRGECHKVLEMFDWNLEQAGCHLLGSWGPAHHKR
G protein-coupled receptor kinase 4 (Homo sapiens), sequence (P32298 whole entry, looked up): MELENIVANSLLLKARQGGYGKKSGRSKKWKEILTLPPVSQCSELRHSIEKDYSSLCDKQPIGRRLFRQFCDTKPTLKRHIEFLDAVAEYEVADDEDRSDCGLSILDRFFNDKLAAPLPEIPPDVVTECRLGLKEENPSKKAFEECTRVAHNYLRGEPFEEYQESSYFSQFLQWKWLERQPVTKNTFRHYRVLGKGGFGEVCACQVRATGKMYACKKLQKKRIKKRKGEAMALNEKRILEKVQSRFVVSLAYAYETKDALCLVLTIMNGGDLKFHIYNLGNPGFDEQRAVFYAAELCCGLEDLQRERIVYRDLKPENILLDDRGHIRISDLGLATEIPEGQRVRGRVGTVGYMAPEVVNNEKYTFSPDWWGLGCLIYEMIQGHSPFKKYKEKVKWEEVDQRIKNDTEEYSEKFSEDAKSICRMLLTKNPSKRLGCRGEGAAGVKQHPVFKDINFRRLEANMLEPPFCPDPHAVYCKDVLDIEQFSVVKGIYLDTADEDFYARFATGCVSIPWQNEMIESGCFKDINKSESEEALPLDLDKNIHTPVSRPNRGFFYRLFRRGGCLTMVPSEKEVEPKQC

## CN(C)CCOc1ccc(-c2nc(-c3ccncc3)c(-c3ccc4c(c3)CC/C4=N\O)[nH]2)cc1
Activated CDC42 kinase 1
  % of control: 100%

## Nc1cnc(N2CCc3cc(S(=O)(=O)Nc4c(F)cc(Cl)cc4F)cc(N4CCCC4=O)c32)nc1 [TP-020n]
[1]
  % of control: 100%

## O[C@H]1CC[C@H](Nc2ncc3nc(Nc4c(F)cc(F)cc4F)n([C@H]4CCOC4)c3n2)CC1
[2]
  % of control: 100%

## CNC(=O)Nc1ccc(-c2nc(N3CC4CCC(C3)O4)c3cnn(C4CCC5(CC4)OCCO5)c3n2)cc1
[3]
  % of inhibition: 0%
[4]
  % of control: 90%

## N#Cc1cccc(-c2c[nH]c3ncnc(N4CCOCC4)c23)c1
[5]
  % of inhibition: 3%
[6]
  % of inhibition: 21%

## COc1cc(N(C)c2ccnc3ccc(C(F)(F)F)cc23)cc(OC)c1OC
[7]
  % binding: 72%

## C=CC(=O)Nc1cccc(C(=O)Nc2ccc(Nc3cc(-c4[nH]c(SC)nc4C)ccn3)cc2)c1
[8]; at 1 µM
  % of control: 106%
[8]; at 5 µM
  % of control: 92%

## Cn1cc(-n2cnc3c(NCc4nc5cc(Cl)c(Cl)cc5[nH]4)nc(N4CCOCC4)nc32)cn1
[9]
  % of inhibition: -27%

## Cc1cc(F)c(C(=O)Nc2cccc(-c3nncn3C(C)C)n2)cc1-n1cnc(C2CC2)c1
[10]
  % of control: 100%
[11]
  % of control: 73%
